{"source": "patent US7223533B2", "about": "“Cell surface proteins and use thereof as indicators of activation of cellular signal transduction pathways” (priority 1999, dated 2007)", "key": {"[1]": {"biological_target": "T1, human melatonin 1a receptor (Homo sapiens, UniProt P48039)", "T1 construct": "expressed in transfected cells; host or cells: S. cerevisiae (CY17353 in A11/A12; aga1 mutant CY19890 in A13), plasmid Cp2695 (PGKp-ML1aR)", "T1 sequence (P48039 whole entry)": "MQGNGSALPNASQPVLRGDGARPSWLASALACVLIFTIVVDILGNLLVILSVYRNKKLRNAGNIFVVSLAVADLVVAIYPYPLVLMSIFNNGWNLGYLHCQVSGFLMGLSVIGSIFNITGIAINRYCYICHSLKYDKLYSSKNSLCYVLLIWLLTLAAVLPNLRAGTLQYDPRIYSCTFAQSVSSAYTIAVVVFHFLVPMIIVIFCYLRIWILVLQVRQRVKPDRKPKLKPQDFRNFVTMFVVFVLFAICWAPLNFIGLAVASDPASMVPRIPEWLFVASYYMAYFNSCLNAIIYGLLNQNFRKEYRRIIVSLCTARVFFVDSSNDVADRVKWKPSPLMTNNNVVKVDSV", "test": "Western blot of DTT-extracted Aga2-HA", "type": "cell-based", "conditions": "increasing concentrations of ligand vs absence", "method": "(§1) The cells (TOD600=1.5) were pelleted, washed with ice-cold 0.15 M sodium chloride, resuspended in 50 microliters of 25 mM Tris-HCl, pH 8.5, supplemented with 10 mM dithiothreitol (DTI) and incubated for1 hour at 4° C. This DTT incubation step reduced the disulfide bonds between the Aga1 and Aga2 proteins, thereby releasing Aga2 into the extracellular medium. After centrifugation, 50 microliter aliquots of the supernatants were subjected to Western blot analysis. Immunoreactive bands corresponding to Aga2-HA were visualized using HA.11 antibodies (BAbCo) as primary antibodies, sheep anti-mouse IgG conjugated with horseradish peroxidase (Amarsham Pharmacia Biotech) as secondary antibodies, and peroxidase substrate (e.g., tetramethyl benzidine (Pierce)) for a visual readout."}, "[2]": {"biological_target": "T2, human melatonin 1a receptor (ML1aR) (Homo sapiens, UniProt P48039)", "T2 construct": "expressed in transfected cells; host or cells: S. cerevisiae (CY17353 in A11/A12; aga1 mutant CY19890 in A13), plasmid Cp2695 (PGKp-ML1aR)", "T2 sequence (P48039 whole entry)": "as above", "test": "ELISA of DTT-extracted cell surface Aga2-HA induction (HA.11 antibody, HRP readout)", "type": "cell-based", "conditions": "for HRP activity: yeast cells, Aga2-HA", "method": "as §1\n(§2) Western blot analysis is a qualitative, rather than quantitative methodology. To determine the induction of expression of the Aga2 protein quantitatively, an ELISA strategy was utilized. Cells were cultured, treated, and the Aga2 protein extracted from the cell surface by DTT incubation, as above. Aliquots of these DTT extracts (50 microliters in the case of cells utilizing the Ste2 receptor and 5 microliters in other cases) were diluted to 100 microliters with 100 mM sodium bicarbonate, pH 9.5. Samples were incubated in 96-well polystyrene plates at 4 degrees C overnight. Plates were washed three times with PBS, pH 7.2 supplemented with 0.1% Tween 20 and blocked with the same buffer containing 3% bovine serum albumin at 37° C. for 1 hr. After blocking, the plates were incubated subsequently with 5000-fold diluted HA.11 antibodies (BAbCo) and 5000-fold diluted sheep anti-mouse IgG conjugated with horseradish peroxidase (Amersham Pharmacia Biotech). Each incubation was conducted at room temperature for 1 hr and was followed by three washes with PBS, pH 7.2, 0.1% Tween 20. The peroxidase activities in each well were determined using tetramethyl benzidine as a substrate."}, "ML1a receptor": {"biological_target": "T3, ML1a receptor (Homo sapiens, UniProt P48039)", "T3 construct": "expressed in transfected cells; host or cells: S. cerevisiae (CY17353 in A11/A12; aga1 mutant CY19890 in A13), plasmid Cp2695 (PGKp-ML1aR)", "T3 sequence (P48039 whole entry)": "as above", "test": "ELISA-like assay of endogenous Aga2 protein with Sag1p21-352", "type": "cell-based", "conditions": "yeast cells containing the ML1a receptor, peroxidase assay", "method": "(§3) Extraction of the endogenous Aga2 protein was effected with DTT, as before. Aliquots (25 microliters) of extracts were diluted with 75 microliters of 100 mM sodium bicarbonate, pH 9.5 and the resulting samples were incubated in 96-well polystyrene plates at 4° C. overnight.\n(§4) After washing the plates three times with PBS, pH 6.5, supplemented with 0.1% Tween 20, samples were blocked with the same buffer containing 3% bovine serum albumin at 37° C. for 1 hour. After blocking, the plates were incubated subsequently with EndoH-treated Sag1p^21-352 solution (0.5 mg/ml), 1000-fold diluted anti-Xpress antibodies (Invitrogen) and 5000-fold diluted sheep anti-mouse IgG conjugated with horseradish peroxidase (Amersham Pharmacia Biotech). Both Sag1p^21-352 and antibodies were dissolved in PBS, pH 6.5 supplemented with 3% BSA. Each incubation was conducted at room temperature for 1 hr and was followed by three washes with PBS, pH 6.5, 0.1% Tween 20. Finally, the peroxidase activities in each well were determined using tetramethyl benzidine as a substrate. If the Aga2 protein were present in the plate, the Sag1p^21-352 should bind to it, the anti-Xpress antibody binds to the Sag1p^21-352 fusion protein, and the sheep anti-mouse IgG antibodies bind specifically to the anti-Xpress antibody."}, "ML1aR": {"biological_target": "T4, ML1aR (Homo sapiens, UniProt P48039)", "T4 construct": "expressed in transfected cells; host or cells: S. cerevisiae (CY17353 in A11/A12; aga1 mutant CY19890 in A13), plasmid Cp2695 (PGKp-ML1aR)", "T4 sequence (P48039 whole entry)": "as above", "test": "Scintillation proximity assay of secreted HA-tagged Aga2p (aga1 mutant strain CY19890)", "type": "cell-based", "conditions": "1 μM melatonin", "method": "A particular embodiment of these types of cell-free Aga2 assays is the scintillation proximity assay. In this technique, the extracellular medium potentially containing the Aga2 protein is incubated with antibodies specific for Aga2. These antibodies are also biotinylated, and thus the antibody-Aga2 complex can be tethered to the surface of SPA beads coated with streptavidin (and also containing scintillant). Sag1p^21-352 is radiolabeled with, e.g., ^125I or ^3H, and is incubated with the Aga2-loaded beads. Binding of the fusion protein to the immobilized Aga2 protein brings the radiolabel in proximity to the scintillant contained within the beads, resulting in the emission of light. This emission can be readily quantitated using a scintillation counter. The presence of light indicates the presence of the Aga2 protein, and thus that the pheromone response pathway was activated in the yeast cells by the test compound via the G protein coupled receptor.\nThe following experiment was conducted in order to test the utility of the scintillation proximity assay for the detection of Aga2p induction mediated by heterologous receptors in yeast. […] One hundred microliter aliquots of culture media were placed into a 96-well plate and the following solutions were added to each well: 20 μl of 0.5 M sodium phosphate, pH 6.0, 1.5 M sodium chloride, 1% Tween 20, 10% BSA; 0.25 μg of SPA beads (Amersham) coated with biotinylated HA.11 antibodies (BAbCo) in 25 μl of PBS (20 mM sodium phosphate, pH 7.2, 0.15 M sodium chloride) and 25 μl of PBS containing [1^25,]-Sag1p^21-352 (250,000 cpm). SPA beads were prepared as follows. Fifty milligrams of streptavidin-coated yttrium silicate beads were incubated in 2 ml of PBS containing 1% BSA, 0.1% Tween 20 and 0.5 mg biotinylated HA. 11 antibodies for 4 hr at room temperature. The beads were washed three times with PBS and resuspended in 1 ml of the same buffer. Sag1p^21-352 was iodinated according to standard protocols using lactoperoxidase.\nLight emission was quantitated using a scintillation counter after incubation of the plate at room temperature for 1 hr, 2 hr and 6 hr."}, "Ste2p [3]": {"biological_target": "T5, Ste2p (Saccharomyces cerevisiae, UniProt D6VTK4)", "T5 construct": "Yeast cells coexpressing either the endogenous yeast receptor Ste2p; endogenous in cells; host or cells: S. cerevisiae MATa cells (strain CY1892 in the Sag1p-based ELISA)", "T5 sequence (D6VTK4 1-431)": "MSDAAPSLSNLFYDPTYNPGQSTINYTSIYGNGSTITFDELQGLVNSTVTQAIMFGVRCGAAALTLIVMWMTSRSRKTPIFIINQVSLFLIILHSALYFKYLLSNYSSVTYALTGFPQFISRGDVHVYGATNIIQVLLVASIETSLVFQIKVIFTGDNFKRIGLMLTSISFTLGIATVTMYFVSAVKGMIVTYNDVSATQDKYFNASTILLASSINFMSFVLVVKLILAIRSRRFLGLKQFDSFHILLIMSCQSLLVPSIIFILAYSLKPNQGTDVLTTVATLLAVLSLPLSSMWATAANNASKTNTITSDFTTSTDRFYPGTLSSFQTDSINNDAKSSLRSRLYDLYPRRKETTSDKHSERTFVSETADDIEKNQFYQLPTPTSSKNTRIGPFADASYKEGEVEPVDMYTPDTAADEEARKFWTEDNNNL", "test": "ELISA of DTT-extracted cell surface Aga2-HA induction (HA.11 antibody, HRP readout)", "type": "cell-based, S. cerevisiae", "conditions": "for HRP activity: yeast cells, Aga2-HA", "method": "as §1, §2"}, "Ste2p [4]": {"biological_target": "T5, Ste2p", "test": "Western blot of DTT-extracted Aga2-HA", "type": "cell-based, S. cerevisiae", "conditions": "increasing concentrations of ligand vs absence", "method": "as §1"}, "Ste2 receptor": {"biological_target": "T6, Ste2 receptor (Saccharomyces cerevisiae, UniProt D6VTK4)", "T6 construct": "Yeast cells coexpressing either the endogenous yeast receptor Ste2p; endogenous in cells; host or cells: S. cerevisiae MATa cells (strain CY1892 in the Sag1p-based ELISA)", "T6 sequence (D6VTK4 1-431)": "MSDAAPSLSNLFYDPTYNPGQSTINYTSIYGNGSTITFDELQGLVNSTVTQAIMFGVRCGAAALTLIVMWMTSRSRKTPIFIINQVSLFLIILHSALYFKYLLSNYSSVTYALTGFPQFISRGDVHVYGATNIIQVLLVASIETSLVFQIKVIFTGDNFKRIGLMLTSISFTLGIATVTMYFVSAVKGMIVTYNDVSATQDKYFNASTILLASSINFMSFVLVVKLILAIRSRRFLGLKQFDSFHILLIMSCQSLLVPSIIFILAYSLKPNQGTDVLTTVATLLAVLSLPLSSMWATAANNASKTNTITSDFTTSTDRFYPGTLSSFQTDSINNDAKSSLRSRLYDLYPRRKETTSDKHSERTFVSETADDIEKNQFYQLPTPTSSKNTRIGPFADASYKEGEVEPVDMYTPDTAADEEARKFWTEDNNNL", "test": "ELISA-like assay of endogenous Aga2 protein with Sag1p21-352, anti-Xpress antibodies and HRP conjugate", "type": "cell-based, S. cerevisiae", "conditions": "yeast cells containing the Ste2 receptor, peroxidase assay", "method": "as §3, §4"}, "[5]": {"test_system": "intact MATa cells (strain CY1892)", "test": "Binding of Sag1p21-352 to yeast cell surface (Western blot of SDS extracts)", "parameters": "species or system S. cerevisiae", "conditions": "cells with or without 100 nM α-factor; 30° C., 30 min", "method": "To ensure that this truncation of the Sag1 protein retained full binding activity to α-agglutinin, and more specifically, the Aga2 protein, binding assays were performed. […] The cells (TOD600=1) were pelleted and resuspended in 0.15 ml of the same media supplemented with varying concentrations of Sag1p^21-352. After incubation at 30° C. for 30 min, the cells were washed three times with the same media and incubated in the presence of 2% SDS for 5 min to release Sag1p^21-352 bound to the cell surface. The SDS extracts were subjected to Western blot analysis. The immunoreactive bands corresponding to Sag1p^21-352 were visualized using anti-Xpress antibodies (Invitrogen), as above."}}}
{"molecule": "COc1ccc2[nH]cc(CCNC(C)=O)c2c1", "note": "[melatonin]", "values": [{"measurement": "expression level of the Aga2 protein", "setting": "[1]", "result": "substantial increase"}, {"measurement": "HRP activity", "setting": "[2]; [Ligand] 1 × 10^−6 M", "result": 1.112}, {"measurement": "HRP activity", "setting": "[2]; [Ligand] 1.13 × 10^−7 M", "result": 0.829}, {"measurement": "HRP activity", "setting": "[2]; [Ligand] 1.95 × 10^−9 M", "result": 0.278}, {"measurement": "HRP activity", "setting": "[2]; [Ligand] 3.13 × 10^−8 M", "result": 0.767}, {"measurement": "HRP activity", "setting": "[2]; [Ligand] 4.88 × 10^−10 M", "result": 0.154}, {"measurement": "HRP activity", "setting": "[2]; [Ligand] 5 × 10^−7 M", "result": 1.216}, {"measurement": "HRP activity", "setting": "[2]; [Ligand] 7.81 × 10^−9 M", "result": 0.427}, {"measurement": "Induction factor", "setting": "[2]; cell surface Aga2-HA, ML1aR", "result": 19}, {"measurement": "induction of the Aga2 protein", "setting": "ML1a receptor", "result": "dose-dependent response"}, {"measurement": "increase in the levels of HA-tagged Aga2p in the culture media", "setting": "ML1aR; scintillation proximity assay", "result": "approximately 3 fold"}, {"measurement": "Induction factor", "setting": "ML1aR; incubation time 1 hr", "result": 2.5}, {"measurement": "Induction factor", "setting": "ML1aR; incubation time 2 hr", "result": 2.6}, {"measurement": "Induction factor", "setting": "ML1aR; incubation time 6 hr", "result": 3.1}]}
{"molecule": "α-factor", "values": [{"measurement": "HRP activity", "setting": "Ste2p [3]; [Ligand] 1.13 × 10^−7 M", "result": 2.163}, {"measurement": "HRP activity", "setting": "Ste2p [3]; [Ligand] 2 × 10^−6 M", "result": 2.332}, {"measurement": "HRP activity", "setting": "Ste2p [3]; [Ligand] 3.13 × 10^−8 M", "result": 0.548}, {"measurement": "HRP activity", "setting": "Ste2p [3]; [Ligand] 5 × 10^−7 M", "result": 2.498}, {"measurement": "HRP activity", "setting": "Ste2p [3]; [Ligand] 7.81 × 10^−9 M", "result": 0.280}, {"measurement": "Induction factor", "setting": "Ste2p [3]; cell surface Aga2-HA, Ste2p", "result": 15}, {"measurement": "expression level of the Aga2 protein", "setting": "Ste2p [4]", "result": "substantial increase"}, {"measurement": "induction of the Aga2 protein", "setting": "Ste2 receptor", "result": "dose-dependent response"}]}
{"molecule": "Sag1p^21-352: N-terminal portion of Sag1p (α-agglutinin, residues 21–352) bearing a polyhistidine tag, Xpress epitope and enterokinase cleavage site (protein, left off: small tags and cut ends) NINDITFSNLEITPLTANKQPDQGWTATFDFSIADASSIREGDEFTLSMPHVYRIKLLNSSQTATISLADGTEAFKCYVSQQAAYLYENTTFTCTAQNDLSSYNTIDGSITFSLNFSDGGSSYEYELENAKFFKSGPMLVKLGNQMSDVVNFDPAAFTENVFHSGRSTGYGSFESYHLGMYCPNGYFLGGTEKIDYDSSNNNVDLDCSSVQVYSSNDFNDWWFPQSYNDTNADVTCFGSNLWITLDEKLYDGEMLWVNALQSLPANVNTIDHALEFQYTCLDTIANTTYATQFSTTREFIVYQGRNLGTASAKSSFISTTTTDLTSINTSAY", "values": [{"measurement": "binding to the cell surface of intact MATa cells", "setting": "[5]", "result": "bound to the cell surface of intact MATa cells only after these cells were treated with α-factor"}]}
